From patent publication US20240140953A1, “INHIBITORS OF MENIN-MLL INTERACTION” (BIOMEA FUSION, INC., priority 2018, published 2024)
pIC50: −log10 of the molar value. “Also recorded” adds a separate entry of the source. Like-named read-outs stand apart in the source and are kept apart here.

Legend:
[1] = tested on: MOLM-13; experiment: Long term proliferation assay (Table 3A), MOLM-13; assay type: cell-based; settings: Homo sapiens
Method: Example 5b: IC50 determination of compounds of invention in various cell lines (Long Term Proliferation Assay)
The following 5 cell lines are used or can be used for the long term proliferation assay.
Compounds of invention are tested in the 5 suspension lines by 14-day long-term proliferation assay.
The compound is tested in 10-pt dose titration (client will determine the starting concentration and the dilution scheme) and the final DMSO concentration is kept at 0.2%.
Vehicle and media control are also included. All treatments are done in triplicate.
3 plates are used for each cell line and 15 plates are used for the 5 cell lines.
• 1) On Day 0, in a flat bottom 96-well plate, add 100 μL of cells per well at the densities optimized. • 2) Prepare compounds in DMSO at 500× final concentration. Dilute the compounds with DMSO at the dilution. • 3) Dilute the compounds in media at 3×final concentration. Add 50 μL of compound or DMSO at 3× final concentration to each well. Final volume in each well is 150 μL, and final concentration of DMSO is 0.2%. Also include 3 untreated control wells, by adding 50 μL of media alone. 4) Incubate plates for 96 hours. • 5) Count the cells using the Acumen, with capabilities for 96-well plates. Pipette cells up and down to mix in each well, and add desired volume of cells to a new flat bottom poly-D-lysine 96-well plate. Add Calcein AM at 1 μM final concentration. Let cells sit at RT for 10 mins followed by a quick spin to get cells settled on the bottom of the wells. Incubate the plate for additional 40 mins in the incubator. Take out the plate and read by Acumen. Calculate the cell numbers taken into account the dilution factors. • 6) Split the master plate. To do this take the total viable cell count calculated using step 5). Take the average of the replicates for each dose in order to be used in splitting the cells. • 7) Use a 96 well V-bottom plate to spin down the cells to remove old media and compound to split the cells. Based on the split ratio place the proper amount of media and cells into the V-bottom plate, and spin the plate at 1100 rpm for 5 minutes. • 8) Following the spin remove the media, careful not to disturb the cellpellet. • 9) Re-suspend pellet in 100 μL fresh media, and add to a new 96-well flat bottom plate. • 10) Add fresh compound, in the same manner as Step 3). • 11) Incubate plates for 72 hours. Repeat steps 5)-10) on Day 7. • 12) Incubate plates for 96 hours. Repeat Step 5)-10) on Day 11. • 13) Incubate 72 hours and repeat step 5) to take a final count. • 14) Data Analysis
To calculate growth for days 4, 7, 11, and 14: • Calculate the split factor for day 4 to 7, day 7 to 11, and day 11-14.

[2] = tested on: HL-60; experiment: Proliferation study, CellTiterGlo, 4 days (Example 102), HL-60; assay type: cell-based; settings: HL-60, 4 days treatment; for pIC50 / IC50: Homo sapiens, 96 h, CellTiterGlo; for pIC50: read-out: HL-60 IC50; for IC50: read-out: HL-60 pIC50 (converted); for HL-60 % max: maximal inhibition
Text: The objective of the study was to evaluate the ability of representative compounds of the present invention, inhibitors of Menin/MLL interaction to inhibit cell proliferation. The proliferation inhibitory effect was investigated in two human MLL-leukemia cells selected on the bases of MLL fusion protein and listed in Table 102. HL-60 cell line was used as negative control.
ATP is present in all metabolically active cells and is considered as a marker for cell viability and proliferation. The metabolic cell activity was determined using the CellTiter-Glo kit from Promega, an ATP monitoring system based on the production of luminescence by the reaction of ATP with added UltraGlo® recombinant luciferase (Kawano et al., 2016), according to the supplier's experimental recommendations.
The described assay evaluates the ability of 4 representative compounds to inhibit the cell proliferation in the human MLL-leukemia cells plus a negative control cell line.
The assay provides potency values (IC50) for each test compound at a single time point Day 4 (T4).
Seven concentrations of the compounds (2.00E-05-6.67E-06-2.22E-06-7.41E-07-2.47E-07-8.23E-08-2.74E-08M), were assessed in duplicate in an individual test occasion in all the cell lines. MI-503 (Borkin et al., 2015) was used as reference compound and was tested at the same concentrations as the NCEs. 100% of proliferation is represented by the untreated cells (0.2% DMSO). The cell growth was monitored up to 4 days in culture.
MV4-11, MOLM-13 and HL-60 cells (see Table 2) were maintained in RPMI-1640 medium (Invitrogen, Cat. n. 618700, Batch n. 1965930) supplemented with 10% of Heat Inactivated FBS (Invitrogen, Cat n. 10500, Batch n. 08Q8078K) and 1% Pen-Strep (Invitrogen, Cat. N. 15140, Batch n. 1910859) and cultured at 37° C. in a humidified incubator with 5% CO2. All the cell lines grow in suspension and the cell density was maintained in a range of 2×10^5-1×10^6 viable cells/ml. Cells were pelleted at 130 g×5 min and conditioned medium was used to dilute the cell suspension.
Test items were dissolved in glass vials at 10 mM in DMSO with purity ≥99.9% (Sigma, D8418, batch n. SHBH4245V) and stored at −20° C. in 1.5 mL Eppendorf tubes.
Serial dilutions 1 to 3 in DMSO 100% were prepared starting from a 10 mM stock solutions to generate 7 points concentration response curve (CRC).
For each plate to test, one 0.4 μL copy plate and four 0.3 μL copy plates were then stamped into 96-well plates not treated for cell adhesion (Sarstedt—cat.no. 82.1581.001) by acoustic liquid Handling, Echo, at a concentration which was 500 fold the final assay concentration. Stamped plates were stored at −20° C. The final concentrations for the reference compound, MI-503, and the test items were: 2.00E-05, 6.67E-06, 2.22E-06, 7.41E-07, 2.47E-07, 8.23E-08 and 2.74E-08 M.
Cells were plated in 96-well flat bottom microtiter plates at cell density of 15,000 cells/ml for HL-60, 1000 cells/ml for MOLM-13 and 10,000 cell/ml for MV4-11. Cells were treated with 0.2% DMSO (Sigma, D8418, batch n. SHBH4245V) or serial dilutions of compounds (0.027 μM-20 μM) in DMSO (0.2% final concentration). Cells were incubated in a 5% CO2 incubator at 37° C. for 4 days. A CellTiterGlo viability assay (Promega) was employed. Luminescence was read by using VictorV (Perkin Elmer) multilabel plate reader using the standard protocol for luminescence in 96 well plate. The experiment was performed in duplicate.
Data were expressed as % of inhibition compared to the 0.2% DMSO negative control, and was calculated as follows: […]
CRCs were analysed by GraphPad and IC50 values were calculated by non-linear regression using 4 parameter-logistic equation. IC50 (μM) values were reported in the final data table. The curve fittings were performed leaving free all the parameters. Any constrain were reported in the results table.

[3] = 96 h, MOLM-13, Day 4, read-out: MOLM-13 Day 4 IC50

| Structure (SMILES) | pIC50 [1, 3] | inhibition of cell viability (in words) ([2]; up to 20 μM) | pIC50 [2] | IC50 [2] | pIC50 ([1]; 264 h, MOLM-13, Day 11, read-out: MOLM-13 Day 11 IC50) | HL-60 % max [2] |
| --- | --- | --- | --- | --- | --- | --- |
| O=C(Cc1cc(-c2cccnc2)n[nH]1)Nc1ccc(-c2nc3c(N4CCOCC4)ncnc3[nH]2)cc1 [Compound 12, N-{4-[6-(morpholin-4-yl)-9H-purin-8-yl]phenyl}-2-[3-(pyridin-3-yl)-1H-pyrazol-5-yl]acetamide] | 6.15 | not active up to the highest concentration tested; also recorded: completely inactive up to the highest concentration tested | < 4.70 | > 20000 nM |  |  |
| O=C(Nc1ccc(-c2cc3c(N4CCOCC4)ncnc3[nH]2)cc1)Nc1cc(-c2cccnc2)n[nH]1 [Compound 9, 1-{4-[4-(morpholin-4-yl)-7H-pyrrolo[2,3-d]pyrimidin-6-yl]phenyl}-3-[3-(pyridin-3-yl)-1H-pyrazol-5-yl]urea] | 6.49 |  | 6.49 | 316 nM | 6.81 | 69% |
| Cn1nc(-c2cccnc2)cc1CC(=O)Nc1ccc(-c2cc3c(N4CCOCC4)ncnc3[nH]2)cc1 [Compound 11, 2-[1-methyl-3-(pyridin-3-yl)-1H-pyrazol-5-yl]-N-{4-[4-(morpholin-4-yl)-7H-pyrrolo[2,3-d]pyrimidin-6-yl]phenyl}acetamide] | 6.59 |  | 6.29 | 513 nM |  | 102% |
